Results reported in ChEMBL document CHEMBL1201862, “PubChem BioAssay data set” (2004).
The source made the active and inactive calls.

How the values were obtained:
[1] = molecular target: Cytochrome P450 2C9 (Homo sapiens, UniProt P11712)
[2] = molecular target: Cytochrome P450 2D6 (Homo sapiens, UniProt P10635);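 note: CYP2D6 member of a cytochrome P450 panel assay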
[3] = molecular target: T1, G-protein coupled receptor 35 (Homo sapiens, UniProt Q9HC97); assay: SAR analysis of Agonists of the GPR35 Receptor using an Image-Based Assay - Set 4. [Related pubchem assays (depositor defined):AID2013, AID2026]; assay type: functional
[4] = molecular target: T2, Cannabinoid receptor 1 (Homo sapiens, UniProt P21554); assay: SAR analysis of agonists of the Cannabinoid Receptor 1 using an Image-Based Assay - Set 4. [Related pubchem assays (depositor defined):AID2013, AID2026]; assay type: functional
[5] = molecular target: T1, G-protein coupled receptor 35; assay: SAR analysis of Antagonists of the GPR35 Receptor using an Image-Based Assay - Set 6. [Related pubchem assays (depositor defined):AID2013, AID2026]; assay type: functional
[6] = molecular target: T2, Cannabinoid receptor 1; assay: SAR analysis of antagonists of the Cannabinoid Receptor 1 using an Image-Based Assay - Set 4. [Related pubchem assays (depositor defined):AID2013, AID2026]; assay type: functional
[7] = molecular target: G-protein coupled receptor 55 (Homo sapiens, UniProt Q9Y2T6); assay: SAR Analysis of Selective Antagonists of GPR55 using an Image-Based Assay - Set 4. [Related pubchem assays (depositor defined):AID2013, AID2026]; assay type: functional;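 note: antagonism of response to 5 µM lysophosphatidylinositol agonist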
[8] = molecular target: T3, Cannabinoid receptor 2 (Homo sapiens, UniProt P34972); assay: SAR analysis of antagonists of the Cannabinoid Receptor 2 using an Image-Based Assay - Set 3. [Related pubchem assays (depositor defined):AID2013, AID2026]; assay type: functional
[9] = molecular target: T3, Cannabinoid receptor 2; assay: SAR analysis of agonists of the Cannabinoid Receptor 2 using an Image-Based Assay - Set 3. [Related pubchem assays (depositor defined):AID2013, AID2026]; assay type: functional
[10] = molecular target: Nonstructural protein 1 (Influenza A virus, UniProt Q194T2); assay type: functional, Influenza A virus (A/California/07/2009(H1N1))
[11] = system: HEK293; assay: cells; assay type: functional, cell-based; settings: Homo sapiens
[12] = molecular target: T4, Nuclear receptor subfamily 0 group B member 1 (Homo sapiens, UniProt P51843); assay: Luminescence-based cell-based high throughput dose response assay for inhibitors of the orphan nuclear receptor subfamily 0, group B, member 1 (DAX1; NR0B1). [Related pubchem assays (depositor defined):AID504766, AID504790]; assay type: functional
T4 sequence (P51843 whole entry): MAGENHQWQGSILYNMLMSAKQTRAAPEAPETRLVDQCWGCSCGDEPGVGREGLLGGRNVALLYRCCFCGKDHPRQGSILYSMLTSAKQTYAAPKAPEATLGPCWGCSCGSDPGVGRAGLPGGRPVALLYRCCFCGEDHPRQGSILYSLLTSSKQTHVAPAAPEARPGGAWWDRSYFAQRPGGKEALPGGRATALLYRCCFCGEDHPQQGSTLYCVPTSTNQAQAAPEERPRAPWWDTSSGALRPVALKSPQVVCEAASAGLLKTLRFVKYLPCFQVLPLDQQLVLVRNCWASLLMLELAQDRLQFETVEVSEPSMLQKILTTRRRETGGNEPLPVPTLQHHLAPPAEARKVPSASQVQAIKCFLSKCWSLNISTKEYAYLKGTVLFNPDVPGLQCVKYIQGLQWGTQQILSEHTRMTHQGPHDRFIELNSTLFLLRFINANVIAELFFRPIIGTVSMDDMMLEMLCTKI

[13] = Luminescence Cell-Based Dose Response HTS to Identify Activators of Luciferase Translation or Activity in H4 […] Cells. [Related pubchem assays: 1829 (Project Summary), 1814 (Primary HTS)]; assay type: functional
[14] = HEp-2 cell cytotoxicity, dose response, cytotoxicity control for RSV inhibitor project, HTS (AID 2410); assay type: functional; settings: human respiratory syncytial virus
[15] = system: Streptococcus sp. 'group A'; assay: growth inhibition of control SK(-) GAS strain, dose response, counter-screen for streptokinase expression inhibitor project, luminescence, kanamycin, BacTiterGlo, confirmation (AID 1900); assay type: functional, organism-based
[16] = molecular target: T5, Streptokinase A (Streptococcus pyogenes serotype M1, UniProt P10520); assay: S. pyogenes streptokinase expression inhibitors, potency, dose response, plasminogen activation absorbance, OD405 (AID 1914); assay type: functional, Streptococcus pyogenes M1 GAS;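 note: secreted streptokinase activity via plasminogen activation per viability signal from cell pellet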
T5 sequence (P10520 whole entry): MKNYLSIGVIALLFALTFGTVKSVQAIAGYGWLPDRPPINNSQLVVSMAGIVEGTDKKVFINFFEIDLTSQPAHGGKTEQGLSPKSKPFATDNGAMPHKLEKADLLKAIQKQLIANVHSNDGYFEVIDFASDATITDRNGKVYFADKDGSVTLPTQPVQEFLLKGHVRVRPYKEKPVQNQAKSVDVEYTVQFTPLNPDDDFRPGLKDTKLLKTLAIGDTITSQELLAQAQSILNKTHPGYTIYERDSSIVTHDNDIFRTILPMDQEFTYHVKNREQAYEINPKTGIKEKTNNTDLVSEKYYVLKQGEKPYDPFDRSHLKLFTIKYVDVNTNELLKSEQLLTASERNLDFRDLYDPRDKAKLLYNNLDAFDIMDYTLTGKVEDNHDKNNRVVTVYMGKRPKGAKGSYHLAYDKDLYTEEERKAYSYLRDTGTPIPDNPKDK

[17] = system: Streptococcus; assay: Group A Streptococcus viability loss, dose response, counter-screen for streptokinase expression inhibitor project, luminescence, BacTiterGlo (AID 1915); assay type: functional, organism-based;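 note: potency for reduction of bacterial viability or growth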
[18] = molecular target: Trypsin (Sus scrofa, UniProt P00761); assay: porcine trypsin inhibitors, dose response, selectivity assay for Rce1 protease inhibitor project, biochemical, quenched peptide fluorescence, cherry-pick (AID 488789)
[19] = molecular target: T6, CAAX prenyl protease 2 (Homo sapiens, UniProt Q9Y256); assay: human Rce1 protease inhibitors, dose response, biochemical, yeast membranes, quenched-peptide fluorescence, cherry-pick (AID 588849)
T6 sequence (Q9Y256 whole entry): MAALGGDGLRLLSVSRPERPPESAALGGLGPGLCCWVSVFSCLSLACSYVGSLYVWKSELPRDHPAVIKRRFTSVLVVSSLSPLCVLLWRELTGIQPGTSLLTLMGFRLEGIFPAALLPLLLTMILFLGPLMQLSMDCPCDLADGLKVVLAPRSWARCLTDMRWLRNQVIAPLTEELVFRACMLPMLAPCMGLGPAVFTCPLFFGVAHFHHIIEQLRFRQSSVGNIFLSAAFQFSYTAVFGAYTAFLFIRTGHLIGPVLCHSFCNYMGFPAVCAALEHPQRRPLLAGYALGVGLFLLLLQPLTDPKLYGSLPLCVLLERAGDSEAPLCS

[20] = cells
[21] = inhibitors of firefly luciferase expression or activity, dose response, H4 neuroglioma cells, luminescence (AID 1990); assay type: functional, cell-based
[22] = system: HEK293; assay: NOD1 signaling inhibitors, primary screen, cell-based, luminescence, uHTS (AID 1578); assay type: functional; settings: Homo sapiens
[23] = system: HEK293; assay: cells; assay type: functional, cell-based; settings: Homo sapiens; remark: listed apart in the source
[24] = Luminescence Cell-Based Dose Response HTS to Identify Inhibitors of 5'UTR Stem-Loop Driven Prion Protein mRNA Translation in H4 Neuroglioblastoma Cells. [Related pubchem assays: 1827 (Project Summary), 1813 (Primary HTS)]; assay type: functional
[25] = inhibitors of SNCA 5'UTR-driven reporter translation, confirmation, H4 neuroglioma cells, luminescence (AID 1988); assay type: functional, cell-based
[26] = system: HEK293; assay: cells; assay type: functional, cell-based; settings: Homo sapiens; remark: listed apart in the source
[27] = system: HEK293; assay: NOD2 signaling inhibitors in MDP-stimulated cells, cell-based, uHTS, luminescence (AID 2001); assay type: functional; settings: Homo sapiens
[28] = system: HEK293; assay: inhibitors of LMP1-driven NF-kB reporter, dose response, cell-based, HEK293, luciferase, cherry-pick (AID 588343); assay type: functional; settings: Homo sapiens
[29] = LGR2 antagonists, dose response, cell-based, HEK293, CRE-luciferase reporter, cherry pick, set 2 (AID 743343); assay type: functional;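 note: transfected cells were stimulated with diluted bursicon conditioned medium after compound addition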
[30] = MC4R antagonists, dose response, counter-screen for LGR2 antagonist project, cell-based, plate reader, cherry pick (AID 743444); assay type: functional;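 note: transfected HEK 293 cells stimulated with alpha-MSH peptide; potency of inhibitors of the alpha-MSH evoked signal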
[31] = molecular target: Alkaline phosphatase, placental type (Homo sapiens, UniProt P05187); assay: PLAP enzyme inhibitors, confirmation, biochemical, luminescence (AID 1512); assay type: functional
[32] = inhibitors of intracellular T. cruzi replication, confirmation, NIH3T3 host cells, beta-gal luminescence (AID 2044); assay type: functional, cell-based;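 note: intracellular parasites grown in NIH/3T3 mouse fibroblasts as host cells; luminescent beta-galactosidase reporter signal from transgenic T. cruzi replicating inside host cells; inhibitors lower the luminescence signal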
[33] = cytotoxicity toward NIH3T3 fibroblasts, dose response, counter-screen, cell-based, ATP luminescence, mouse fibroblasts (AID 2010); assay type: functional;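 note: cells exposed to compound for about 90 hours before reading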
[34] = system: Escherichia coli; assay: microbe, parasite or virus in culture
[35] = molecular target: T7, CAAX prenyl protease 2 (Saccharomyces cerevisiae S288c, UniProt Q03530); assay type: biochemical
T7 sequence (Q03530 whole entry): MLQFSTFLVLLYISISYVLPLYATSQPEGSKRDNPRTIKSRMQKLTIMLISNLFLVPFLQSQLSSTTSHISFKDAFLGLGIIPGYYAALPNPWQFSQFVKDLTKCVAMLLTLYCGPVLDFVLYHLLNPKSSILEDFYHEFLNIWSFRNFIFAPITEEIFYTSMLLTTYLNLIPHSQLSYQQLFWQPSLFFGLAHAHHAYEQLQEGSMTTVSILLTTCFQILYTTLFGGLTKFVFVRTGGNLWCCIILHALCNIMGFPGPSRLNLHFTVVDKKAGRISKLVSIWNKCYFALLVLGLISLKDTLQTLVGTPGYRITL

[36] = molecular target: T8, Voltage-gated N-type calcium channel alpha-1B subunit/Amyloid beta A4 precursor protein-binding family A member 1 (Homo sapiens, UniProt Q00975+Q02410); assay type: protein assay
[37] = molecular target: T8, Voltage-gated N-type calcium channel alpha-1B subunit/Amyloid beta A4 precursor protein-binding family A member 1; assay type: protein assay; remark: listed apart in the source
[38] = molecular target: Induced myeloid leukemia cell differentiation protein Mcl-1 (Homo sapiens, UniProt Q07820); assay type: functional

T2 sequence (P21554 whole entry): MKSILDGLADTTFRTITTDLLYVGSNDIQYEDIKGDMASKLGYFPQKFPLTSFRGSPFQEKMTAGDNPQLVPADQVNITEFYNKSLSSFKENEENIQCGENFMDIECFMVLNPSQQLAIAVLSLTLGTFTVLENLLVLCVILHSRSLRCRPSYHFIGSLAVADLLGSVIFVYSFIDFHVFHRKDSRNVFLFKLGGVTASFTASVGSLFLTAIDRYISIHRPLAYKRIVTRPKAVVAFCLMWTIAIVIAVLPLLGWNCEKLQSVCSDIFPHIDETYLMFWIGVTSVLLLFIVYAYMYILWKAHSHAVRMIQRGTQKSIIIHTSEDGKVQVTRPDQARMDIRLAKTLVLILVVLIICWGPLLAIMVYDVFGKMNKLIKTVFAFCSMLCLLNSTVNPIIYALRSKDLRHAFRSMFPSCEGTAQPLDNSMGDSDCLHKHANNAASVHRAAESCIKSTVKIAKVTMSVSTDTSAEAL
T3 sequence (P34972 whole entry): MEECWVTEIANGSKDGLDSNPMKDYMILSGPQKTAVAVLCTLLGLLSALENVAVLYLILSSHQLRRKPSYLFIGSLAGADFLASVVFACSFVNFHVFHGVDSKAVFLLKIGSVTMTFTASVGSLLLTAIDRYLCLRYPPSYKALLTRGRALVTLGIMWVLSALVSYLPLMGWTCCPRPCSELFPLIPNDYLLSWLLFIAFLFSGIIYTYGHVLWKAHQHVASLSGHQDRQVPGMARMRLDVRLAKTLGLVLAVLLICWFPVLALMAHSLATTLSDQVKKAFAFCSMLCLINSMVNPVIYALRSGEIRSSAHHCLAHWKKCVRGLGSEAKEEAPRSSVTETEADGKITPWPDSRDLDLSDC
Sequence of Trypsin (P00761 whole entry): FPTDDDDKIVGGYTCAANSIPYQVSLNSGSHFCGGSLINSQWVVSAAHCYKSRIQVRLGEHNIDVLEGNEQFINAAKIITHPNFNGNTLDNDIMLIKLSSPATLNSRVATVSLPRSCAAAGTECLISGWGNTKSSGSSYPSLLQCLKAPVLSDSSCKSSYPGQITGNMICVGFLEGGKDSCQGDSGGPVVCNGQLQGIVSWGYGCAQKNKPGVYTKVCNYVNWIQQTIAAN
T1 sequence (Q9HC97 whole entry): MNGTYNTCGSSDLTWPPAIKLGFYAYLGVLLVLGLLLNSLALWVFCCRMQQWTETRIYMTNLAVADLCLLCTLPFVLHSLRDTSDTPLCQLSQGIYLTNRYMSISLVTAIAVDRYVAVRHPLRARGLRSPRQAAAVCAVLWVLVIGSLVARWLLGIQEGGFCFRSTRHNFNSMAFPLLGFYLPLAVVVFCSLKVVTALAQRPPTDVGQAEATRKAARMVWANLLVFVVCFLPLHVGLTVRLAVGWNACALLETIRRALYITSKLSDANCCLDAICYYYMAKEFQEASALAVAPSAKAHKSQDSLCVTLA
Sequence of G-protein coupled receptor 55 (Q9Y2T6 whole entry): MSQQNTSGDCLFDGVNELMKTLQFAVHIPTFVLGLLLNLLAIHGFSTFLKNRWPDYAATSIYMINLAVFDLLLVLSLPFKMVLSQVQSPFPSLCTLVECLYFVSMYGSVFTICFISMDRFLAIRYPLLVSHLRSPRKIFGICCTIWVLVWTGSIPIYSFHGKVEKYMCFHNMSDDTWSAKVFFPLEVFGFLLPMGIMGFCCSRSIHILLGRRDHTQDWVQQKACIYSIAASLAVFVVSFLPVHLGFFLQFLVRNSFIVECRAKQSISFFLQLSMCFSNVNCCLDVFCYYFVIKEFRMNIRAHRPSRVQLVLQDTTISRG
T8 sequence (Q00975 whole entry): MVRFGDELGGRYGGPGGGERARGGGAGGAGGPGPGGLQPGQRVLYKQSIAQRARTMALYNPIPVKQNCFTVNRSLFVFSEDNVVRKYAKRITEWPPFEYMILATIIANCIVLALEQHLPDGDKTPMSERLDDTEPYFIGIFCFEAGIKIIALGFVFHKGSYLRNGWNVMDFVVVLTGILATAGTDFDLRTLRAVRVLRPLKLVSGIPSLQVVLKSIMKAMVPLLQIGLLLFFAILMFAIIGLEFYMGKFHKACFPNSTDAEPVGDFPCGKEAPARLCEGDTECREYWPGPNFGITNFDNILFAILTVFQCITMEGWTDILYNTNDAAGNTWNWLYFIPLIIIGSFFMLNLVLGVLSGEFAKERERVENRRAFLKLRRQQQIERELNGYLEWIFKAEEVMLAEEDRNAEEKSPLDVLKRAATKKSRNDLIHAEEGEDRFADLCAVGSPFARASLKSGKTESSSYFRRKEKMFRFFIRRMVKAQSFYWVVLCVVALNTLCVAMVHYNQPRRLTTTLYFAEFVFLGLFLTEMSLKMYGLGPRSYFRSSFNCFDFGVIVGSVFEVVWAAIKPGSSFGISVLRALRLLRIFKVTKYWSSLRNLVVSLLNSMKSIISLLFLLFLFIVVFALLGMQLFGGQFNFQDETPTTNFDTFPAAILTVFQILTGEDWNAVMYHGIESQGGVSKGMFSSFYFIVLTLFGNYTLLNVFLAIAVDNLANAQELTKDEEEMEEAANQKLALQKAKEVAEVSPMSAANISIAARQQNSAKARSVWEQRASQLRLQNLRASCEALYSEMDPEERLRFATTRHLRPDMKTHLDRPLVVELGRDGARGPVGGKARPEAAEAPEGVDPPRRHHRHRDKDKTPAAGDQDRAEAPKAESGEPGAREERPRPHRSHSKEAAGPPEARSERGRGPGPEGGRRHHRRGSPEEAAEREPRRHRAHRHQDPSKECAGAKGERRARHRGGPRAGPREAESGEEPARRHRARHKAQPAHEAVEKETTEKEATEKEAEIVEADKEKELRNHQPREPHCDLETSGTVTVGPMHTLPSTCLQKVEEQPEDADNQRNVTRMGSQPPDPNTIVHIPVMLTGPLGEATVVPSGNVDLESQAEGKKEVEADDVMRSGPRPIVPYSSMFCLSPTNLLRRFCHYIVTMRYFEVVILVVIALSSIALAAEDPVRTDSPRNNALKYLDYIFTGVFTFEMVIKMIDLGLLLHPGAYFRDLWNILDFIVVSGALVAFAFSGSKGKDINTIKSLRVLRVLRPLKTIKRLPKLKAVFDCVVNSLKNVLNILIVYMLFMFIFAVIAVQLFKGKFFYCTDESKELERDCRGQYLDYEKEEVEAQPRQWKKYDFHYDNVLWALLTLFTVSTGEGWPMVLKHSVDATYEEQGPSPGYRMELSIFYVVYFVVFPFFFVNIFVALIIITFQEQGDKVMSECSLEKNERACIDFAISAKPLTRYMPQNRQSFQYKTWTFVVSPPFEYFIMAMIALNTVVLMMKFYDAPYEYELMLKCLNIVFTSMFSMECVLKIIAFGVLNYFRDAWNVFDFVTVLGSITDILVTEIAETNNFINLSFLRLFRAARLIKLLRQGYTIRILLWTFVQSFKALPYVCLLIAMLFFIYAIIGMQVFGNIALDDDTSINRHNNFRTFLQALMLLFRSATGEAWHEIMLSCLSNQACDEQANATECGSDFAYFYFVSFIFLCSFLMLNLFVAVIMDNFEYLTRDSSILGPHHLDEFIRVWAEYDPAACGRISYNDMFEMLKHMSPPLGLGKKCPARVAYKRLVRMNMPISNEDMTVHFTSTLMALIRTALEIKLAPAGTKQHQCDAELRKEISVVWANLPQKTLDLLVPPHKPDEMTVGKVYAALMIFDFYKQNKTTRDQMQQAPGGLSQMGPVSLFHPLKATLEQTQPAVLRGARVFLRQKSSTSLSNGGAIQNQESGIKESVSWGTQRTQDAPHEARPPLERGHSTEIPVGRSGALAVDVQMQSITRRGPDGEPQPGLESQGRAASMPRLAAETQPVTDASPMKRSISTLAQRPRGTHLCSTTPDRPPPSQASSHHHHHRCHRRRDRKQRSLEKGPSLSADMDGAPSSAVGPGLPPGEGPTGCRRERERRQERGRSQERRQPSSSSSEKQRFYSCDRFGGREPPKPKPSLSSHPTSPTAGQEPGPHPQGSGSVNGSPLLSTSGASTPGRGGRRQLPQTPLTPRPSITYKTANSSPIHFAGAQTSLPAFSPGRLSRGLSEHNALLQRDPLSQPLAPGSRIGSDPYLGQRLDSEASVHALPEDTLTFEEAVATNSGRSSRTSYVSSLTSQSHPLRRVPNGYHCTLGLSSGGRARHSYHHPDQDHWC
T8 sequence (Q02410 whole entry): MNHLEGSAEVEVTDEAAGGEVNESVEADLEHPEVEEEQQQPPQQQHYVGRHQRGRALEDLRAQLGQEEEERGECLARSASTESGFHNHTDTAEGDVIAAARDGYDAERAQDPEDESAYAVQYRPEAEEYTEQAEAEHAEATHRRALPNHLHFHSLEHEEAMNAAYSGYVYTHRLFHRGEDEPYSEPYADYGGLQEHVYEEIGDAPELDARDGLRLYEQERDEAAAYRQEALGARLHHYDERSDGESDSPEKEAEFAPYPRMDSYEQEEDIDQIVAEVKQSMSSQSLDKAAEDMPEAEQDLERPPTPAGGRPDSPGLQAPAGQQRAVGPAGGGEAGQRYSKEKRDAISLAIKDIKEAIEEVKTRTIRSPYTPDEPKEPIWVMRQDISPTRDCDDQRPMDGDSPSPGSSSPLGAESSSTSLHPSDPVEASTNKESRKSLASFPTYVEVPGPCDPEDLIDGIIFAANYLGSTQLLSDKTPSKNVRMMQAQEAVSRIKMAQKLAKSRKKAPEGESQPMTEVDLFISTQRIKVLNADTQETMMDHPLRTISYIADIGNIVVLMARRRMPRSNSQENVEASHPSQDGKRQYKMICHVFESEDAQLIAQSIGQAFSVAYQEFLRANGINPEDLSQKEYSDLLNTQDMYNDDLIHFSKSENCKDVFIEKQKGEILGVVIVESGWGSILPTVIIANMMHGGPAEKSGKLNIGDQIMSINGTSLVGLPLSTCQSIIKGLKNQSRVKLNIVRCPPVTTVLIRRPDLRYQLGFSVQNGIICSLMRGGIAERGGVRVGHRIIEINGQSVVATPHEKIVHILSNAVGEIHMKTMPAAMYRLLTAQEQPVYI

## Cc1ccc(C)c(C(=O)C2=C(O)C(=O)N(Cc3cccnc3)C2c2cccnc2)c1 (stereo not drawn)
[1]
  AC50: 3.16 µM (inconclusive)
[2]
  AC50: inconclusive

## COc1ccc(-c2nnc(C)c3nn(-c4ccc(Cl)cc4)cc23)cc1
[3]
  EC50: > 32 µM (inactive)
[4]
  EC50: > 32 µM (inactive)
[5]
  IC50: > 32 µM (inactive)
[6]
  IC50: 1.47 µM (active)
[7]
  IC50: 3.56 µM (active)
[8]
  IC50: 13.2 µM (inactive)
[9]
  EC50: > 32 µM (inactive)

## Cc1ccnc2nc(C(=O)Nc3nc(-c4ccccn4)cs3)nn12
[10]
  IC50: 5.06 µM (active)
[11]
  IC50: 65.2 µM (inactive)
[12]
  IC50: > 67.5 µM (inactive)

## O=C(Nc1ccc(F)cc1)/C(Cl)=C/c1ccccc1
[13]
  EC50: 5.09 µM (active)
[11]
  IC50: > 67.5 µM (inactive)
[12]
  IC50: > 67.5 µM (inactive)

## COc1cc(-c2c(C#N)c(N)nc3c2c(C)nn3-c2ccc(C)c(C)c2)cc(OC)c1OC
[14]
  CC50: 22.1 µM (active)
[15]
  EC50: 5.69 µM (active)
[16]
  EC50: > 150 µM (not active)
[17]
  EC50: 36.4 µM (active)
[18]
  AC50: 16.1 µM (active)
[19]
  AC50: 11.2 µM (active)
[20]
  IC50: 31.8 µM (active)

## Fc1ccccc1/C=N/Nc1cc(N2CCCCC2)ncn1
[11]
  IC50: > 67.5 µM (inactive)
[12]
  IC50: > 67.5 µM (inactive)

## O=C1OCCC1Sc1nnc(-c2ccc(Cl)cc2Cl)o1 (stereo not drawn)
[21]
  EC50: 7.77 µM (active)
[22]
  EC50: 6.32 µM (active)
[23]
  IC50: 6.93 µM (active)
[24]
  EC50: 9.97 µM (active)
[25]
  EC50: 8.84 µM (active)
[26]
  IC50: > 20 µM (inactive)
[27]
  IC50: 13 µM (inactive)
[28]
  AC50: 7.18 µM (active)
[29]
  AC50: 9.34 µM (active)
[30]
  AC50: 9.84 µM (active)

## Cn1cc(Br)c(C(=O)NNC(=O)c2cccc(Br)c2)n1
[31]
  IC50: > 100 µM (inactive)

## Clc1ccc(C2[C@H]3CN(Cc4cccnc4)[C@H](c4ccccc4)C34CC2(c2ccccc2)C4)cn1 (stereo partly drawn)
[32]
  EC50: 1.61 µM (active)
[33]
  EC50: 9.94 µM (active)
[34]
  AC50: 34.8 µM (active)

## CC(C)NC(=O)c1cc2c(=O)n3ccccc3nc2n(C2CCCC2)c1=N
[3]
  EC50: > 32 µM (inactive)
[4]
  EC50: > 32 µM (inactive)
[5]
  IC50: > 32 µM (inactive)
[6]
  IC50: > 32 µM (inactive)
[7]
  IC50: > 32 µM (inactive)
[8]
  IC50: > 32 µM (inactive)
[9]
  EC50: 9.06 µM (active)

## CCn1c2ccccc2c2cc(/C=N/NC(=O)c3ccc(O)cc3)ccc21
[18]
  AC50: 4.51 µM (active)
[35]
  AC50: 21.6 µM (active)
[19]
  AC50: 40.3 µM (active)

## Cc1nnc(-c2ccc(Cl)cc2)c2cn(-c3ccccc3)nc12
[3]
  EC50: > 32 µM (inactive)
[4]
  EC50: > 32 µM (inactive)
[5]
  IC50: > 32 µM (inactive)
[6]
  IC50: 3.58 µM (active)
[7]
  IC50: 19.2 µM (inactive)
[8]
  IC50: 19.5 µM (inactive)
[9]
  EC50: > 32 µM (inactive)

## O=C(c1ccc(Cn2cnnn2)cc1)N1CCCC(Nc2ccc(F)cc2)C1 (stereo not drawn)
[18]
  AC50: 5.79 µM (active)
[35]
  AC50: 5.9 µM (active)
[19]
  AC50: 22.6 µM (active)

## CC(=O)Nc1ccc(C2=NN=C(Nc3cccc(S(=O)(=O)N(C)C)c3)SC2)cc1
[36]
  IC50: 3.56 µM (active)
[37]
  IC50: > 50 µM (inactive)
[38]
  IC50: 4.2 µM (active)

## CNC(=O)OCC[N+](C)(C)C
[2]
  AC50: inconclusive

## Cc1nc(-c2cccc(S(=O)(=O)N3CCOCC3)c2)cs1
[34]
  AC50: 35.7 µM (active)
